Test results reported in patent US20250152585A1, “PHARMACEUTICAL COMPOUND” (Duke Street Bio Limited, priority 2022, published 2025).
Where two headings read alike, the source gives them in different places.

How the values were obtained:
PARP2 = molecular target: T1, PARP2 (Homo sapiens, UniProt Q9UGN5); test: NanoBRET cellular target occupancy assay, PARP2; format: cell-based; conditions: HEK293 cells transiently transfected with PARP2-NanoLuc fusion; tracer 2 nM; 2 hours at 37° C.; Kd by Cheng-Prussoff
T1 construct: host or cells: HEK293
T1 sequence (Q9UGN5 whole entry, the tested form may be a part): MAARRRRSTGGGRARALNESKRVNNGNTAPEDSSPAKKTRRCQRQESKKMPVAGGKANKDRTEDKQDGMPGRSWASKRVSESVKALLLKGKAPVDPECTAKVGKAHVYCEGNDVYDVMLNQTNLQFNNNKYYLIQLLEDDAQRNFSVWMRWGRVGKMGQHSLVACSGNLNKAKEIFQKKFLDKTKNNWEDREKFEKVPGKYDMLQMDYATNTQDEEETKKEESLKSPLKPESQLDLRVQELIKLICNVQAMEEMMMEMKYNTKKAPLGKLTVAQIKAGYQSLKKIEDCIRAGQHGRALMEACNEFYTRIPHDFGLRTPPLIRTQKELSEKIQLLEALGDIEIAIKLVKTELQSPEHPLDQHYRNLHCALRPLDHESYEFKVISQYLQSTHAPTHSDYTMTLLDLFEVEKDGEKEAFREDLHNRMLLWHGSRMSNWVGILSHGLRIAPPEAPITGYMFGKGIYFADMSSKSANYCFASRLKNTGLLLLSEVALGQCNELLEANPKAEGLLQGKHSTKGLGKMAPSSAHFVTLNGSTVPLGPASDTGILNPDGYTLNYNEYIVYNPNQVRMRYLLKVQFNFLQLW
Source text: NanoBRET Cellular Target Occupancy Assay

PARP1 = molecular target: T2, PARP1 (Homo sapiens, UniProt P09874); test: NanoBRET cellular target occupancy assay, PARP1; format: cell-based; conditions: for Kd: HEK293 cells transiently transfected with PARP1-NanoLuc fusion, tracer 11 nM, 2 hours at 37° C., Kd by Cheng-Prussoff; for Selectivity: NanoBRET, PARP1 over PARP2, Kd (PARP2)/Kd (PARP1)
T2 construct: host or cells: HEK293
T2 sequence (P09874 whole entry, the tested form may be a part): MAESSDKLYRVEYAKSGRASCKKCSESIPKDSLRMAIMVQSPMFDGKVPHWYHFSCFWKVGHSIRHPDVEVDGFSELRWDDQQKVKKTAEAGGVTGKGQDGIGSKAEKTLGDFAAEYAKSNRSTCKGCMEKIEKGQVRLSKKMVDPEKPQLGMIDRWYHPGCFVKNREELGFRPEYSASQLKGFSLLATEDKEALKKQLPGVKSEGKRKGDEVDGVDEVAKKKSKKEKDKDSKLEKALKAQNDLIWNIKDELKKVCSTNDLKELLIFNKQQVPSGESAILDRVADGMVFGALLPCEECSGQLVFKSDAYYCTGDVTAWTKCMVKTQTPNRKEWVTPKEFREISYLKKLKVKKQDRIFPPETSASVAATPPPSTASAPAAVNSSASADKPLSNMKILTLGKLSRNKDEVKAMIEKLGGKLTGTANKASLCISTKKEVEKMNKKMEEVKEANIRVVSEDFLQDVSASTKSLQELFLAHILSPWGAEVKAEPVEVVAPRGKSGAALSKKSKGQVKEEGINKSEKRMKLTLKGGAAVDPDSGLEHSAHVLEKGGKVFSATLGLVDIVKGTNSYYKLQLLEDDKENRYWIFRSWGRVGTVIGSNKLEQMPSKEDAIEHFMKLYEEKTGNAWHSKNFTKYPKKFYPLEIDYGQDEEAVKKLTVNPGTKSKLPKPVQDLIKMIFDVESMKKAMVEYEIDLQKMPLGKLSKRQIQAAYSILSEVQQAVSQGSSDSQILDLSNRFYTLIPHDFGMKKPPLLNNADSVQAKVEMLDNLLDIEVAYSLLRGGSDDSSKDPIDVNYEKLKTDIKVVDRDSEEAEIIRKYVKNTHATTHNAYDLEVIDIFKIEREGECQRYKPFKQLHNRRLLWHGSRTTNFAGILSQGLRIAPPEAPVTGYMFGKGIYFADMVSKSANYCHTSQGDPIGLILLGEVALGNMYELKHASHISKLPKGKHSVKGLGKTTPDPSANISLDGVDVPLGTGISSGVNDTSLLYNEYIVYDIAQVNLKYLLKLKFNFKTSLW

[1] = molecular target: T3, full length N-terminally FLAG-tagged PARP1 (Homo sapiens, UniProt P09874); test: PARP1 probe displacement HTRF assay; conditions: for Kd: binned Kd; for Selectivity: PARP1 over PARP2, ratio Kd (PARP2)/Kd (PARP1)
T3 sequence (P09874 whole entry): as the sequence (P09874 whole entry, the tested form may be a part) above

[2] = molecular target: T3, full length N-terminally FLAG-tagged PARP1; test: PARP1 biochemical DELFIA assay (auto-PARylation); set-up: recombinant full length human N-terminally FLAG-tagged PARP1
[3] = molecular target: T4, N-terminally FLAG-tagged PARP2 (amino acids 1-583) (Homo sapiens, UniProt Q9UGN5); test: PARP2 probe displacement HTRF assay; format: binding; conditions: binned Kd
T4 construct: N-terminally FLAG-tagged PARP2 (amino acids 1-583)
T4 sequence (Q9UGN5 whole entry, the tested form may be a part): as the sequence (Q9UGN5 whole entry, the tested form may be a part) above
Description: Data analysis was performed identical as for PARP1.

[4] = PARP1 HTRF, probe displacement HTRF
[5] = binned IC50, biochemical auto-PARylation assay
[6] = read-out: PARP1 HTRF, probe displacement HTRF
[7] = read-out: PARP1 HTRF, PARP1 probe displacement HTRF
[8] = binned IC50, PARP1 biochemical DELFIA assay

Kd (PARP2) [nM]	Kd (PARP1) [nM]	Kd [1, 4] [nM]	IC50 [2, 5] [nM]	Kd ([3]; probe displacement HTRF) [nM]	Kd [1, 6] [nM]	Kd [1, 7] [nM]	IC50 [2, 8] [nM]	Kd ([3]; PARP2 probe displacement HTRF) [nM]	Kd ([1]; PARP1 HTRF, PARP1 probe displacement HTRF) [nM]	Compound	Selectivity (PARP1)	Selectivity ([1]; probe displacement HTRF)
100 to 1000	< 10					< 10	< 10	100 to 1000		CNC(=O)c1ccc(N2CCC(N3CCC(c4cc5cccc(F)c5c(=O)[nH]4)C3)CC2)c(F)n1 (single isomer, unassigned) [Compound 184b, 6-fluoro-5-[4-[3-(8-fluoro-1-oxo-2H-isoquinolin-3-yl)pyrrolidin-1-yl]piperidin-1-yl]-N-methylpyridine-2-carboxamide]	+++ (+++ indicate a value of at least 100)	+++ (+++ indicate a value of at least 100)
> 10000	< 10		< 10	> 10000	< 10					CNC(=O)c1ccc(N2CCC(N3CCC(c4cc5c(F)ccc(F)c5c(=O)[nH]4)C3)CC2)c(F)n1 (single isomer, unassigned) [Compound 323a]	+++ (+++ indicate a value of at least 100)	+++ (+++ indicate a value of at least 100)
> 10000	< 10						< 10	100 to 1000	< 10	CCc1ccc(C2CCN(C3CCN(c4ccc(C(=O)NC)nc4F)CC3)C2)[nH]c1=O (single isomer, unassigned) [Compound 151a, 5-(4-(3-(5-ethyl-6-oxo-1,6-dihydropyridin-2-yl)pyrrolidin-1-yl)piperidin-1-yl)-6-fluoro-N-methylpicolinamide]	+++ (+++ indicate a value of at least 100)	+++ (+++ indicate a value of at least 100)
> 10000	< 10		< 10	1000 to 10000	< 10					CNC(=O)c1ccc(N2CCC(N3CCC(c4cc5ncc(Cl)cc5c(=O)[nH]4)C3)CC2)c(F)n1 (single isomer, unassigned) [Compound 344b]	+++ (+++ indicate a value of at least 100)	+++ (+++ indicate a value of at least 100)
100 to 1000	< 10					< 10	< 10	100 to 1000		CNC(=O)c1ccc(N2CCC(N3CCC(c4cc5ccc(F)cc5c(=O)[nH]4)C3)CC2)nn1 (single isomer, unassigned) [Compound 197a]	+++ (+++ indicate a value of at least 100)	+++ (+++ indicate a value of at least 100)

Second part, the compound before the results:

Compound	Kd (PARP2) [nM]	Kd (PARP1) [nM]	Kd [1, 4] [nM]	IC50 [2, 5] [nM]	Kd ([3]; probe displacement HTRF) [nM]	Kd [1, 6] [nM]	Kd [1, 7] [nM]	IC50 [2, 8] [nM]	Kd ([3]; PARP2 probe displacement HTRF) [nM]	Kd ([1]; PARP1 HTRF, PARP1 probe displacement HTRF) [nM]	Selectivity (PARP1)	Selectivity ([1]; probe displacement HTRF)
CNC(=O)c1ccc(N2CCC(N3CC4(c5nc6ccc(F)cc6c(=O)[nH]5)CC3C4)CC2)c(F)n1 [Compound 259, 6-fluoro-5-(4-(4-(6-fluoro-4-oxo-3,4-dihydroquinazolin-2-yl)-2-azabicyclo[2.1.1]hexan-2-yl)piperidin-1-yl)-N-methylpicolinamide]	1000 to 10000	< 10	< 10	< 10	100 to 1000						+++ (+++ indicate a value of at least 100)	+++ (+++ indicate a value of at least 100)
CCc1ccc(C2CCN(C3CCN(c4ccc(C(=O)NC5CC5)nc4F)CC3)C2)[nH]c1=O (single isomer, unassigned) [Compound 353a]	100 to 1000	< 10		< 10	100 to 1000	< 10					+++ (+++ indicate a value of at least 100)	+++ (+++ indicate a value of at least 100)
CCc1cc(Cl)c(C2CCN(C3CCN(c4ccc(C(=O)NC)nc4)CC3)C2)[nH]c1=O (racemic) [Compound 255rac]	1000 to 10000	< 10		< 10	100 to 1000	< 10					+++ (+++ indicate a value of at least 100)	++ (++ indicates a value of 50 to less than 100)
CNC(=O)c1ccc(N2CCC(N3CCC(c4nc5ccc(Cl)cc5c(=O)[nH]4)C3)CC2)cn1 (single isomer, unassigned) [Compound 68a]	1000 to 10000	< 10					< 10	< 10	100 to 1000		+++ (+++ indicate a value of at least 100)	+++ (+++ indicate a value of at least 100)
CNC(=O)c1ccc(N2CCC(N3CCC(c4cc5ccc(F)cc5c(=O)[nH]4)C3)CC2)cn1 (single isomer, unassigned) [Compound 154b, 5-(4-(3-(7-fluoro-1-oxo-1,2-dihydroisoquinolin-3-yl)pyrrolidin-1-yl)piperidin-1-yl)-N-methylpicolinamide]	100 to 1000	< 10					< 10	< 10	10 to 100		+++ (+++ indicate a value of at least 100)	+ (+ indicates a value of 10 to less than 50)
CCc1ccc(C2CCN(C3CCN(c4ccc(C(=O)NCC(F)F)nc4)CC3)C2)[nH]c1=O (single isomer, unassigned) [Compound 354b]	100 to 1000	< 10		< 10	100 to 1000	< 10					+++ (+++ indicate a value of at least 100)	+++ (+++ indicate a value of at least 100)
CNC(=O)c1ccc(N2CCC(N3CC4(c5nc6ccccc6c(=O)[nH]5)CC3C4)CC2)c(F)n1 [Compound 260]	> 10000	< 10	< 10	< 10	1000 to 10000						+++ (+++ indicate a value of at least 100)	+++ (+++ indicate a value of at least 100)
CCc1cnc(C23CC(C2)N(C2CCN(c4ccc(C(=O)NC)nc4)CC2)C3)[nH]c1=O [Compound 299, 5-(4-(4-(5-ethyl-6-oxo-1,6-dihydropyrimidin-2-yl)-2-azabicyclo[2.1.1]hexan-2-yl)piperidin-1-yl)-N-methylpicolinamide]	> 10000	10 to 100	< 10	< 10	> 10000						+++ (+++ indicate a value of at least 100)	+++ (+++ indicate a value of at least 100)
CCc1ccc(C2CCN(C3CCN(c4ccc(C(=O)NC)nc4Cl)CC3)C2)[nH]c1=O (single isomer, unassigned) [Compound 239b]	1000 to 10000	< 10		< 10	1000 to 10000	< 10					+++ (+++ indicate a value of at least 100)	+++ (+++ indicate a value of at least 100)
CNC(=O)c1ccc(N2CCC(N3CCC(c4nc5ccccc5c(=O)[nH]4)C3)CC2)cn1 (single isomer, unassigned) [Compound 10b, N-methyl-5-(4-(3-(4-oxo-3,4-dihydroquinazolin-2-yl)pyrrolidin-1-yl)piperidin-1-yl)picolinamide]	1000 to 10000	< 10					< 10	< 10	100 to 1000		+++ (+++ indicate a value of at least 100)	+++ (+++ indicate a value of at least 100)
CNC(=O)c1ccc(N2CCC(N3CC4(c5nc6c(c(=O)[nH]5)CCC6)CC3C4)CC2)cn1 [Compound 295]	> 10000	10 to 100	< 10	< 10	> 10000						++ (++ indicates a value of 50 to less than 100)	+++ (+++ indicate a value of at least 100)
